Drawing on US12581252B2, “Substituted pyrrolo[3,4-b]pyridines as PI3K-α inhibitors” (Relay Therapeutics, Inc., priority 2020, dated 2026), this text covers IC50 for 56 molecules.

Usually IC50 stands for the point on the concentration scale where inhibition reaches its midpoint. The low end stands for higher potency, the high end for lower potency.

The experiment deals with H1047R PIK3CA enzyme (Homo sapiens, UniProt P42336, H1047R). Briefly: ADP-Glo Biochemical PIK3CA Kinase Assay.
H1047R PIK3CA enzyme, sequence (P42336 whole entry H1047R): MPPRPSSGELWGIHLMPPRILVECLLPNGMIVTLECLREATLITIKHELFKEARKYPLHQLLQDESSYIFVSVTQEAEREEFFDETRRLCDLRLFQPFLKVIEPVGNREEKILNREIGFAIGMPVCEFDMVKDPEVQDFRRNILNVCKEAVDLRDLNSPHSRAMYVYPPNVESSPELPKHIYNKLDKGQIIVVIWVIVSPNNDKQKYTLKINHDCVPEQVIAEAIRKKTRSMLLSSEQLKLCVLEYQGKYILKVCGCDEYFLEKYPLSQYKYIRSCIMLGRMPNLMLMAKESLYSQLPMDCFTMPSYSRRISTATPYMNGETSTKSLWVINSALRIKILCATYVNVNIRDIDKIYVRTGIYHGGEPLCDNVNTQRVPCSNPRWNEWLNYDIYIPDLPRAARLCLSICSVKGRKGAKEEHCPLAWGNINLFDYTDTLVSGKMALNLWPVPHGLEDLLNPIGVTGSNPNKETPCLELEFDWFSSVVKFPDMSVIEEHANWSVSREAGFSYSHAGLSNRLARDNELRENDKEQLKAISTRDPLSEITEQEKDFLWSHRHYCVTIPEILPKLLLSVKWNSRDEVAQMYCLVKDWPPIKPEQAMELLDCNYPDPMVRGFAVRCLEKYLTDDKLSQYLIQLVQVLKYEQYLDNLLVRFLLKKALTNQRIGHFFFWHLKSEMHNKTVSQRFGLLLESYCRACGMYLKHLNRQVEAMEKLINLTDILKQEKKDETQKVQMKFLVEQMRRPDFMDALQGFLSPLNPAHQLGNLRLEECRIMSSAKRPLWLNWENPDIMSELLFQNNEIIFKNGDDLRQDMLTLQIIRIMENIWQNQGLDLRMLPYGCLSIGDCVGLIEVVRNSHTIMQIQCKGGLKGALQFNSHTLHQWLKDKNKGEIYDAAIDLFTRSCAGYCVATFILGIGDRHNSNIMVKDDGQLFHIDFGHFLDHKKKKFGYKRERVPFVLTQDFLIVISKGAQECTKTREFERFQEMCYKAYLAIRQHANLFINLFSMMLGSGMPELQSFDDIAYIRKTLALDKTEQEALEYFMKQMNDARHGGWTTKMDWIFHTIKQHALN
H1047R PIK3CA enzyme, sequence (P27986 whole entry partner): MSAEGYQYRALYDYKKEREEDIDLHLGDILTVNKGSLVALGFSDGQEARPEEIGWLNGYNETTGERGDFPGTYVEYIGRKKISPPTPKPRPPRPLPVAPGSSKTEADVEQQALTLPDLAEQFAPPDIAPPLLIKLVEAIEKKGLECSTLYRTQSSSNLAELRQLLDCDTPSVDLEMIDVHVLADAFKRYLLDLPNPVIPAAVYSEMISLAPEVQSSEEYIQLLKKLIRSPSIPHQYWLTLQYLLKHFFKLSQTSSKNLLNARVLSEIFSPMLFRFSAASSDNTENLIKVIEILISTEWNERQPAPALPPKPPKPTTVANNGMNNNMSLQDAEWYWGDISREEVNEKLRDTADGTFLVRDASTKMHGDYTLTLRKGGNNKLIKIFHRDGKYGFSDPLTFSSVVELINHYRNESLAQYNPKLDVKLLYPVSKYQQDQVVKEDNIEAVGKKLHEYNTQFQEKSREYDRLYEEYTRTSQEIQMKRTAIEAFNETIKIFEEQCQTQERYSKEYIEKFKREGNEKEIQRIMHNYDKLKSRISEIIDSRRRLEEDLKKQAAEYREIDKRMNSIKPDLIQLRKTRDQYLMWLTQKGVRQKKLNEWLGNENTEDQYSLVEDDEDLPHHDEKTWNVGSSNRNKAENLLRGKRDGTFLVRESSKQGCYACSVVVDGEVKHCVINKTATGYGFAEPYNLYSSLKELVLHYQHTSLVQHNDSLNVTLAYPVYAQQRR
Turning to `O=C(Nc1cc(-c2ccc3nc(Cl)nn3c2)cc2c1C(c1cc(F)ccc1Cl)NC2=O)c1cc(F)cc(C(F)(F)F)c1` (centres unmarked) [Compound I-1573], the half-inhibitory concentration (IC50) is no more than 0.1 µM.

Molecule `NC(=O)CC(=O)Nc1cc(-c2ccc3ncnn3c2)cc2c1C(c1cc(F)ccc1Cl)NC2=O` (centres unmarked) [Compound I-1983] showed an IC50 of 10 to 100 µM.

For `O=C1N[C@@H](c2cc(F)ccc2Cl)c2c(NC(=O)N3C[C@@](O)(C(F)(F)F)c4cc(F)ccc43)cc(-n3ncccc3=O)cc21` (single isomer, unassigned) [Compound I-2534], the IC50 lay in the range of 0.5 to 1 µM.

Consider `O=C(Nc1cc(-c2ccc(=O)n(C(F)F)c2)cc2c1[C@@H](c1cc(F)ccc1Cl)NC2=O)c1cc(F)cc(C(F)(F)F)c1` [Compound I-1860], for which the IC50 was 1 to 10 µM.

Take `O=C1N[C@@H](c2cc(F)ccc2Cl)c2c(NC(=O)[C@@H]3CCC[C@H](C(F)(F)F)C3)cc(-c3ccc4ncnn4c3)cc21` [Compound I-2030]: the IC50 lay in the range of 0.5 to 1 µM.

For `Cc1ccccc1C1(C)NC(=O)c2cccc(NC(=O)c3csc4ccccc34)c21` (centres unmarked) [Compound I-80, N-(3-Methyl-1-oxo-3-(o-tolyl)isoindolin-4-yl)benzo[b]thiophene-3-carboxamide], the IC50 lay within 10 to 100 µM.

Regarding `CC(O)c1cc(NC(=O)c2cc(F)cc(C(F)(F)F)c2)c2c(n1)C(=O)NC2c1cc(F)ccc1Cl` (centres unmarked) [Compound I-280], the IC50 fell in the range of 0.1 to 0.5 µM.

As to `O=C(Nc1cc(Br)cc2c1C(c1cccc(F)c1F)NC2=O)c1cc(F)cc(C(F)(F)F)c1` (centres unmarked) [Compound I-684], the IC50 lay in the range of 1 to 10 µM.

Molecule `O=C1NC(c2cc(F)ccc2Cl)c2c(NC(=O)N3CCC4C(C3)C4C(F)(F)F)cc(Br)cc21` (centres unmarked) [Compound I-1756] returned an IC50 of 1 to 10 µM.

Take `Cc1ccccc1C1NC(=O)c2c(P(C)(C)=O)ccc(NC(=O)c3cc(F)cc(C(F)(F)F)c3)c21` (centres unmarked) [Compound I-365]: the IC50 was in the range of 1 to 10 µM.

On to `O=C(Nc1cccc2c1C(c1cc(F)ccc1Cl)NC2=O)c1cc(Cl)cc2c1OCC2` (centres unmarked) [Compound I-596], for which the IC50 lay in the range of 1 to 10 µM.

On to `CNc1cc(NC(=O)N2C[C@](O)(C(F)F)c3cc(F)ccc32)c2c(c1)C(=O)N[C@H]2c1cc(F)ccc1Cl` (single isomer, unassigned) [Compound I-2678], for which the IC50 was in the range of 1 to 10 µM.

Molecule `CNc1cc(C(F)(F)F)cc(C(=O)Nc2cccc3c2C(c2cc(F)ccc2Cl)NC3=O)n1` (centres unmarked) [Compound I-839] displayed an IC50 of 10 to 100 µM.

In the case of `Cc1ccccc1C1NC(=O)c2cccc(NC(=O)c3nc(C)c4ccc(Cl)cn34)c21` (centres unmarked) [Compound I-285], the concentration for half-maximal inhibition (IC50) lay within 10 to 100 µM.

In turn, `Cc1ccccc1C1NC(=O)c2cccc(NC(=O)c3ncn4ccc(Cl)cc34)c21` (centres unmarked) [Compound I-258, 7-chloro-N-[3-(2-methylphenyl)-1-oxo-2,3-dihydro-1H-isoindol-4-yl]imidazo[1,5-a]pyridine-1-carboxamide] gave an IC50 of 1 to 10 µM.

`CC(O)C1NC(=O)c2cccc(NC(=O)c3cc(F)cc(C(F)(F)F)c3)c21` (centres unmarked) [Compound I-1776]: the IC50 lay in the range of 1 to 10 µM.

`N#CCc1cc(NC(=O)N2C[C@](O)(C(F)(F)F)c3cc(F)ccc32)c2c(c1)C(=O)N[C@H]2c1cc(F)ccc1Cl` (single isomer, unassigned) [Compound I-2625] registered an IC50 of 1 to 10 µM.

On to `CC(C)(O)c1cc(NC(=O)c2cc(F)cc(C(F)(F)F)c2)c2c(n1)C(=O)N[C@H]2c1cc(F)ccc1Cl` [Compound I-272], for which the IC50 lay within 0.1 to 0.5 µM.

The molecule `O=C1NC(c2cc(F)ccc2Cl)c2c(NC(=O)N3CCc4ccc(F)cc43)cc(Br)cc21` (centres unmarked) [Compound I-1717] had an IC50 of no more than 0.1 µM.

`CNC(=O)c1cc(NC(=O)c2nsc3ccccc23)c2c(c1)C(=O)NC2c1ccccc1C` (centres unmarked) [Compound I-123] displayed an IC50 of no more than 0.1 µM.

Regarding `O=C(Nc1cc(CS(=O)(=O)c2ncccn2)cc2c1C(c1cc(F)ccc1Cl)NC2=O)c1cc(F)cc(C(F)(F)F)c1` (centres unmarked) [Compound I-1570], the IC50 is no more than 0.1 µM.

Molecule `O=C(Nc1cccc2c1C(=O)NS2(=O)=O)c1cc(F)cc(C(F)(F)F)c1` [Compound I-472] registered an IC50 of 10 to 100 µM.

Molecule `O=C(CCC(F)F)Nc1cc(NC(=O)c2cc(F)cc(C(F)(F)F)c2)c2c(c1)C(=O)NC2c1cc(F)ccc1Cl` (centres unmarked) [Compound I-360] came in with an IC50 of no more than 0.1 µM.

As for `N#Cc1cnc2ccc(-c3cc(NC(=O)c4cc(F)cc(C(F)(F)F)c4)c4c(c3)C(=O)N[C@H]4c3cc(F)ccc3Cl)cn12` [Compound I-1443], the IC50 was no more than 0.1 µM.

Molecule `O=C(Nc1cc(-c2ccc3ncnn3c2)nc2c1[C@@H](c1cc(F)ccc1Cl)NC2=O)c1cc(F)cc(C(F)(F)F)c1` [Compound I-1230] had an IC50 of 0.1 to 0.5 µM.

Turning to `O=C(Nc1cc(C2=CN3CCN=C3C=C2)cc2c1[C@H](c1cc(F)ccc1Cl)NC2=O)c1cc(F)cc(C(F)(F)F)c1` [Compound I-2090], the IC50 is no more than 0.1 µM.

As for `O=C(CC1(C(F)(F)F)CC1)Nc1cc(-c2ccc3ncnn3c2)cc2c1C(c1cc(F)ccc1Cl)NC2=O` (centres unmarked) [Compound I-2044], the IC50 is 1 to 10 µM.

`CN(C)S(=O)(=O)Cc1cc(NC(=O)c2cc(F)cc(C(F)(F)F)c2)c2c(c1)C(=O)N[C@H]2c1cc(F)ccc1Cl` [Compound I-1489]: the IC50 is no more than 0.1 µM.

`O=C1NC(c2cc(F)ccc2Cl)c2c(NC(=O)N3CC4CC(F)(C4)C3)cc(Br)cc21` (centres unmarked) [Compound I-1753] displayed an IC50 of 10 to 100 µM.

Molecule `O=C1N[C@@H](c2cc(F)ccc2Cl)c2c(NC(=O)N3C[C@@](O)(C(F)(F)F)c4cc(F)ccc43)cc(-n3ccccc3=O)cc21` (single isomer, unassigned) [Compound I-2530] returned an IC50 of 1 to 10 µM.

`O=C1N[C@@H](c2cc(F)ccc2Cl)c2c(NC(=O)[C@@H]3CC[C@H](C(F)(F)F)C3)cccc21` [Compound I-2086] had an IC50 of 1 to 10 µM.

Molecule `O=C1N[C@H](c2cc(F)ccc2Cl)c2c(NC(=O)N3C[C@@](O)(C(F)(F)F)c4cc(F)ccc43)cc(F)cc21` (single isomer, unassigned) [Compound I-2629] displayed an IC50 of 1 to 10 µM.

The molecule `O=C(Nc1cc(-c2cnc3nccn3c2)cc2c1C(c1cc(F)ccc1Cl)NC2=O)c1cc(F)cc(C(F)(F)F)c1` (centres unmarked) [Compound I-825] showed a concentration for half-maximal inhibition (IC50) of no more than 0.1 µM.

Turning to `O=C1NC(c2ccccc2Cl)c2c(NC(=O)c3nsc4ccccc34)ccnc21` (centres unmarked) [Compound I-172], the IC50 lay within 0.1 to 0.5 µM.

In turn, `N#Cc1ccc(Cl)c(C2NC(=O)c3cccc(NC(=O)c4cc(F)cc(C(F)(F)F)c4)c32)c1` (centres unmarked) [Compound I-485] displayed an IC50 of 10 to 100 µM.

`O=C(Nc1cccc2c1C(c1cccc(Br)c1)NC2=O)c1cc(F)cc(C(F)(F)F)c1` (centres unmarked) [Compound I-663] displayed an IC50 of 10 to 100 µM.

`O=C1N[C@H](c2cc(F)ccc2Cl)c2c(NC(=O)N3C[C@](O)(C(F)(F)F)c4cc(F)ccc43)ccnc21` (single isomer, unassigned) [Compound I-2699] showed an IC50 of 1 to 10 µM.

As to `O=C1N[C@@H](c2cc(F)ccc2Cl)c2c(NC(=O)N3CC[C@H]4CCCC[C@H]43)cccc21` [Compound I-2422], the IC50 lay in the range of 1 to 10 µM.

`O=C1NC(c2cc(F)ccc2Cl)c2c(NC(=O)c3csc4cocc34)cccc21` (centres unmarked) [Compound I-2301] gave an IC50 of 10 to 100 µM.

For `CS(=O)(=O)N1CC(Oc2cc(NC(=O)c3cc(F)cc(C(F)(F)F)c3)c3c(c2)C(=O)NC3c2cc(F)ccc2Cl)C1` (centres unmarked) [Compound I-1346], the IC50 is no more than 0.1 µM.

`C[C@]1(O)C[C@@H](Nc2cc(NC(=O)c3cc(F)cc(C(F)(F)F)c3)c3c(n2)C(=O)NC3c2cc(F)ccc2Cl)C1` (single isomer, unassigned) [Compound I-329] displayed an IC50 of 0.1 to 0.5 µM.

Take `O=C(Nc1cc(-c2ccn3nccc3c2)cc2c1C(c1cc(F)ccc1Cl)NC2=O)c1cc(F)cc(C(F)(F)F)c1` (centres unmarked) [Compound I-1669]: the IC50 was no more than 0.1 µM.

`O=C(Nc1cc(-c2cscn2)cc2c1[C@@H](c1cc(F)ccc1Cl)NC2=O)c1cc(F)cc(C(F)(F)F)c1` [Compound I-1085] displayed an IC50 of 1 to 10 µM.

Consider `CC(=O)N1CCCCC1C1NC(=O)c2cccc(NC(=O)c3cc(F)cc(C(F)(F)F)c3)c21` (centres unmarked) [Compound I-1674], for which the IC50 was in the range of 10 to 100 µM.

Molecule `O=C(Nc1cc(C2CCOC2)cc2c1C(c1cc(F)ccc1Cl)NC2=O)c1cc(F)cc(C(F)(F)F)c1` (racemic) [Compound I-778] displayed an IC50 of no more than 0.1 µM.

The molecule `O=C(Nc1cccc2c1C(c1cccc(F)c1)NC2=O)c1cc(F)cc(C(F)(F)F)c1` (centres unmarked) [Compound I-390] showed an IC50 of 1 to 10 µM.

`CC(C)(O)Cc1cc(NC(=O)c2cc(F)cc(C(F)(F)F)c2)c2c(c1)C(=O)NC2c1cc(F)ccc1Cl` (centres unmarked) [Compound I-437] had an IC50 of no more than 0.1 µM.

As for `O=C(Nc1cc(-c2ccnn2C2COC2)cc2c1C(c1cc(F)ccc1Cl)NC2=O)c1cc(F)cc(C(F)(F)F)c1` (centres unmarked) [Compound I-1037], the IC50 is no more than 0.1 µM.

`O=C1N[C@@H](c2cc(F)ccc2Cl)c2c(NC(=O)[C@H]3C[C@H](O)C[C@@H](C(F)(F)F)C3)cc(Br)cc21` (single isomer, unassigned) [Compound I-2151] displayed a half-maximal inhibitory concentration (IC50) of 1 to 10 µM.

The molecule `N[C@]1(C(F)(F)F)CN(C(=O)Nc2cccc3c2[C@H](c2cc(F)ccc2Cl)NC3=O)c2ccc(F)cc21` (single isomer, unassigned) [Compound I-2472] yielded a half-maximal inhibitory concentration (IC50) of 0.5 to 1 µM.

`CC(=O)c1cc(NC(=O)c2cc(F)cc(Cl)c2)c2c(c1)C(=O)NC2c1cc(F)ccc1Cl` (centres unmarked) [Compound I-215] registered an IC50 of 0.1 to 0.5 µM.

For the molecule `C[C@H](C#N)Oc1cc(NC(=O)c2cc(F)cc(C(F)(F)F)c2)c2c(c1)C(=O)N[C@H]2c1cc(F)ccc1Cl` (single isomer, unassigned) [Compound I-2006], the IC50 is no more than 0.1 µM.

Consider `O=C(Nc1cc(-c2ccc3ncnn3c2)cc2c1[C@@H](c1cc(F)ccc1Cl)NC2=O)c1cc(F)cc(OC(F)(F)F)c1` (stereo in doubt) [Compound I-1117], for which the IC50 lay in the range of 1 to 10 µM.

In turn, `N#Cc1nc2ccc(-c3cc(NC(=O)c4cc(F)cc(C(F)(F)F)c4)c4c(c3)C(=O)NC4c3cc(F)ccc3Cl)cn2n1` (centres unmarked) [Compound I-1707] had an IC50 of no more than 0.1 µM.

`C[C@@]1(O)CN(C(=O)Nc2cccc3c2[C@H](c2cc(F)ccc2Cl)NC3=O)c2ccccc21` (single isomer, unassigned) [Compound I-2206]: the IC50 lay within 10 to 100 µM.

With `O=C1N[C@@H](c2cc(F)ccc2Cl)c2c(NC(=O)N3C[C@@](O)(C(F)(F)F)c4cc(F)ccc43)cc(Cl)nc21` (single isomer, unassigned) [Compound I-2705], the IC50 is 1 to 10 µM.
